Values quoted from earlier work in patent US20160287529A1, “METHOD FOR TREATING AND PREVENTING RECURRENT INTERDIGITAL TINEA PEDIS (ATHLETE'S FOOT) DISEASE” (priority 2015, published 2016).

Tested on: fungal infections of the skin and nails of the human foot
Conditions: topical treatment

| Structure (SMILES) | effectiveness compared with the allylamines |
| --- | --- |
| C=CCCCCCCCCC(=O)O [undecenoic acid] | less effective |
| Cc1cccc(N(C)C(=S)Oc2ccc3ccccc3c2)c1 [tolnaftate] | less effective |
